Values of other authors as cited in article PMC7465353, “Antioxidant Effects of PS5, a Peptidomimetic of Suppressor of Cytokine Signaling 1, in Experimental Atherosclerosis” (Antioxidants, 2020).

Tested on: VSMCs

Question: Which “VSMC migration, wound healing” value does the source give for “KIR peptide: peptide encompassing residues 52–67, i.e., kinase inhibitory region (KIR) of SOCS1 (DTHFRTFRSHADYRRI; UniProt O15524 52-67, looked up, fragment)” here?
Answer: significantly diminished the migration and proliferation
